Test in all cases: NCI tumour cell line growth inhibition, 48 h
Experiment [1] deals with COLO 205 colon.
For experiment [2], the system named is HCC-2998 colon.
Experiment [3] relates to HCT-15 colon.
The subject of experiment [4] is HOP-62 NSCLC.
Experiment [5] relates to IGROV1 ovarian.
Experiment [6] relates to K-562 leukemia.
Experiment [7] deals with NCI-H226 lung.
In experiment [8] the test system is SK-OV-3 ovarian.
For experiment [9], the system named is SNB-19 CNS.
For experiment [10], the system named is SR leukemia.

The structures appear in SMILES notation. Values joined by “and” are separate entries in the source; they are usually repeats but may differ in a detail not shown here. Equal entries are not always repeated.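 Exposure lasted 48 hours, with cells grown in 96-well plates and compounds tested at five concentrations. At the GI50, growth is halved. The concentration for full growth arrest is given as TGI.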 Where only a bound is given, the exact number is not on record here.

Turning to `CC(C)=CCC[C@](C)(O)[C@H]1CC[C@]2(C)[C@@H]1CC[C@@H]1[C@@]3(C)CC[C@H](OC(=O)CCC(=O)O)C(C)(C)[C@@H]3CC[C@]12C`, the GI50 in experiment [1] was 27.4 µM; in [2], 30.6 µM; in [3] it was 19.5 µM; in experiment [4], 37.6 µM; in experiment [5], 18.5 µM; in [6] it was 23.8 µM. The GI50 in experiment [7] was 16.7 µM; in [8], 47.6 µM; in experiment [9], 25.1 µM; in [10], 19.4 µM. In addition, the TGI was 95.3 µM in experiment [1]; more than 100 µM in experiment [2]; 48.6 µM in experiment [3]; more than 100 µM in experiment [4]; 72.7 µM in [5]; more than 100 µM in experiment [6]. Moreover, the TGI is 40.3 µM in [7], more than 100 µM in experiment [8], more than 100 µM in experiment [9] and 56.5 µM in [10].
On to `N#CC(/C(=N\NC(N)=S)C(=O)NC1C2CC3CC(C2)CC1C3)c1ccc(Cl)cc1` (stereo unspecified), for which the TGI in experiment [1], in experiment [2], in experiment [3], in [4], in [5] and in experiment [6] was more than 100 µM each time. The TGI in experiment [7], in experiment [8], in experiment [9] and in experiment [10] was more than 100 µM in each case.
Turning to `O=C(O)CCN1C(=O)/C(=C/C(Cl)=C/c2ccccc2)SC1=S`, the GI50 in experiment [1] is 2.86 µM; in [2], 1.88 µM; in experiment [3] it was 1.77 µM; in [4], 3.74 µM; in [5], 2.42 µM; in experiment [6], 1.88 µM. In addition, the GI50 in [7] was 6.46 µM; in [8], 7.54 µM; in [9], 3.41 µM; in [10], 0.929 µM. For the same compound, the TGI in [1] was found to be 6.71 µM; in experiment [2], 3.38 µM; in [3], 6.82 µM; in [4], 13.3 µM; in experiment [5] it was 6.98 µM; in experiment [6], 6.26 µM. Besides, the TGI in [7] is 95.9 µM; in experiment [8], 20.1 µM; in experiment [9] it was 13.3 µM; in [10] it was 5.47 µM.
As to `C[C@@H]1CC[C@H]2C(CN3CCN(CC4=C(C(F)(F)F)O[C@@H]5O[C@@]6(C)CC[C@H]7[C@H](C)CC[C@@H]4[C@@]57OO6)CC3)=C(C(F)(F)F)O[C@@H]3O[C@@]4(C)CC[C@@H]1[C@]32OO4`, the GI50 was 0.996 µM in [1]; 10.5 µM in experiment [2]; 1.79 µM in experiment [3]; more than 27.4 µM in experiment [5]; 1.09 µM in experiment [6]; 2.81 µM in experiment [7]. In addition, the GI50 in experiment [8] was more than 100 µM; in experiment [9], 7.75 µM; in [10], 1.89 µM. The TGI was more than 100 µM in experiment [2]; more than 37.2 µM in experiment [3]; more than 46.9 µM in [4]; more than 100 µM in experiment [5]; more than 100 µM in experiment [6]; more than 100 µM in [7]. Besides, the TGI in [8], in [9] and in [10] was more than 100 µM in each case.
For `C[C@H]1CC(=O)[C@@]2(O)C#C/C=C\C#C[C@@H]3Nc4c(cc(O)c5c4C(=O)c4ccccc4C5=O)[C@]24O[C@]314`, the TGI was 0.342 µM in experiment [1]; 0.0595 µM in experiment [2]; 0.836 µM and 0.148 µM in experiment [3]; 0.00698 µM and 0.00625 µM in [4]; 0.452 µM and 0.7 µM in experiment [5]; 0.233 µM and 0.605 µM in [6]. For the same compound, the TGI was 0.0954 µM in experiment [8], 0.172 µM in experiment [9] and 0.0426 µM in experiment [10]. Further, the GI50 in experiment [3] was 0.00722 µM; in experiment [4], 0.0025 µM; in experiment [5], 0.0025 µM; in experiment [7] it was 0.0025 µM.
As to `COc1ccccc1OCC(O)CO` (stereo unspecified), the GI50 in experiment [1], in experiment [2], in experiment [3], in experiment [4], in experiment [5] and in experiment [6] was more than 100 µM each time. Besides, the GI50 in experiment [7], in experiment [8], in [9] and in experiment [10] was more than 100 µM each time. In addition, the TGI in [1], in experiment [2], in [3], in [4], in [5] and in experiment [6] was more than 100 µM throughout. The TGI in [7], in experiment [8], in experiment [9] and in [10] was more than 100 µM in each case.
As to `COC(=N)/C(=C1\OC(N)=C(c2ccc(Cl)cc2)C1=O)c1ccc(Cl)cc1`, the TGI in experiment [1], in experiment [2], in experiment [3], in experiment [4], in experiment [5] and in experiment [6] was more than 100 µM throughout. Further, the TGI in experiment [7], in [8], in experiment [9] and in [10] was more than 100 µM in each case.
On to `CCNC1=CC(=O)c2ncccc2C1=O`, for which the GI50 in experiment [1] was 1.63 µM; in experiment [2], 2.16 µM; in [3], 0.999 µM; in [4], 0.583 µM; in experiment [5] it was 7.91 µM; in experiment [6] it was 2.84 µM. Further, the GI50 in experiment [7] is 1.85 µM; in experiment [8] it was 6.92 µM; in [9] it was 1.59 µM; in experiment [10], 3.71 µM. The TGI in [1] was determined as 3.3 µM; in experiment [2], 5.37 µM; in experiment [3], 3.22 µM; in [4], 2.04 µM; in [5], 24.5 µM; in experiment [6] it was 12.5 µM. In addition, the TGI worked out at 4.42 µM in experiment [7], 19.8 µM in experiment [8], 6.7 µM in experiment [9] and 11 µM in experiment [10].

Values taken from PubChem BioAssay (NCI).
